Reference: PubChem BioAssay (NCI)
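Results reflect a 48-hour exposure of cells in 96-well plates to compound at five concentrations. The concentration for 50% growth inhibition is given as GI50. TGI: total growth inhibition.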

Tests used:
Assay in all cases: growth of human tumour cells (NCI), 48 h
MCF7 breast = tested on: MCF7 breast
MDA-MB-231 breast = tested on: MDA-MB-231 breast
U251 CNS = tested on: U251 CNS
HT29 colon = tested on: HT29 colon
NCI-H226 lung = tested on: NCI-H226 lung
SK-MEL-5 melanoma = tested on: SK-MEL-5 melanoma
HOP-62 NSCLC = tested on: HOP-62 NSCLC
HOP-92 NSCLC = tested on: HOP-92 NSCLC
OVCAR-8 ovarian = tested on: OVCAR-8 ovarian
SK-MEL-28 melanoma = tested on: SK-MEL-28 melanoma
LOX IMVI melanoma = tested on: LOX IMVI melanoma
OVCAR-3 ovarian = tested on: OVCAR-3 ovarian
HCC-2998 colon = tested on: HCC-2998 colon
OVCAR-4 ovarian = tested on: OVCAR-4 ovarian
NCI-H23 lung = tested on: NCI-H23 lung
CCRF-CEM leukemia = tested on: CCRF-CEM leukemia
SNB-75 CNS = tested on: SNB-75 CNS
SF-268 CNS = tested on: SF-268 CNS
RXF 393 renal = tested on: RXF 393 renal
UACC-257 melanoma = tested on: UACC-257 melanoma
PC-3 prostate = tested on: PC-3 prostate
UO-31 renal = tested on: UO-31 renal
RPMI-8226 leukemia = tested on: RPMI-8226 leukemia
TK-10 renal = tested on: TK-10 renal
HS 578T breast = tested on: HS 578T breast
SNB-19 CNS = tested on: SNB-19 CNS
COLO 205 colon = tested on: COLO 205 colon
ACHN renal = tested on: ACHN renal
HL-60(TB) leukemia = tested on: HL-60(TB) leukemia
HCT-116 colon = tested on: HCT-116 colon
A549 NSCLC = tested on: A549 NSCLC
MALME-3M melanoma = tested on: MALME-3M melanoma
SW-620 colon = tested on: SW-620 colon
UACC-62 melanoma = tested on: UACC-62 melanoma
M14 melanoma = tested on: M14 melanoma
DU-145 prostate = tested on: DU-145 prostate
EKVX NSCLC = tested on: EKVX NSCLC
MDA-MB-435 = tested on: MDA-MB-435
NCI-H522 lung = tested on: NCI-H522 lung
KM12 colon = tested on: KM12 colon
NCI/ADR-RES ovarian = tested on: NCI/ADR-RES ovarian
SF-295 CNS = tested on: SF-295 CNS
OVCAR-5 ovarian = tested on: OVCAR-5 ovarian
BT-549 breast = tested on: BT-549 breast
IGROV1 ovarian = tested on: IGROV1 ovarian
SF-539 CNS = tested on: SF-539 CNS
K-562 leukemia = tested on: K-562 leukemia
HCT-15 colon = tested on: HCT-15 colon
MOLT-4 leukemia = tested on: MOLT-4 leukemia
A498 renal = tested on: A498 renal
786-0 renal = tested on: 786-0 renal
T-47D breast = tested on: T-47D breast
CAKI-1 renal = tested on: CAKI-1 renal
NCI-H460 lung = tested on: NCI-H460 lung
SK-MEL-2 melanoma = tested on: SK-MEL-2 melanoma
SN12C renal = tested on: SN12C renal
SR leukemia = tested on: SR leukemia
SK-OV-3 ovarian = tested on: SK-OV-3 ovarian

## Cc1cc(S(=O)(=O)Nc2nnc(-c3ccccc3)c(-c3ccccc3)n2)c(SCc2ccccc2)cc1Cl
MCF7 breast
  GI50: 24 µM
  TGI: 54.2 µM
MDA-MB-231 breast
  GI50: 20.2 µM
  TGI: 41.9 µM
U251 CNS
  GI50: 21.7 µM
  TGI: 50.1 µM
HT29 colon
  GI50: 22.4 µM
  TGI: 51.7 µM
NCI-H226 lung
  GI50: 27.7 µM
  TGI: 79.8 µM
SK-MEL-5 melanoma
  GI50: 17 µM
  TGI: 33.5 µM
HOP-62 NSCLC
  GI50: 22.9 µM
  TGI: 39.6 µM
HOP-92 NSCLC
  GI50: 18.8 µM
  TGI: 47.1 µM
OVCAR-8 ovarian
  GI50: 27.2 µM
  TGI: 89.7 µM
SK-MEL-28 melanoma
  GI50: 22.6 µM
  TGI: 40.7 µM
LOX IMVI melanoma
  GI50: 26.2 µM
  TGI: 50.2 µM
OVCAR-3 ovarian
  GI50: 17.9 µM
  TGI: 34.8 µM
HCC-2998 colon
  GI50: 27.3 µM
  TGI: 43.8 µM
OVCAR-4 ovarian
  GI50: 19.9 µM
  TGI: 37.2 µM
NCI-H23 lung
  GI50: 22.6 µM
  TGI: 48.1 µM
CCRF-CEM leukemia
  GI50: 23.8 µM
  TGI: 75.5 µM
SNB-75 CNS
  GI50: 29.4 µM
  TGI: 49 µM
SF-268 CNS
  GI50: 19.3 µM
  TGI: 39.9 µM
RXF 393 renal
  GI50: 19.8 µM
  TGI: 39.2 µM
UACC-257 melanoma
  GI50: 28.5 µM
  TGI: 70.1 µM
PC-3 prostate
  GI50: 21.2 µM
  TGI: 58 µM
UO-31 renal
  GI50: 26 µM
  TGI: 73.5 µM
RPMI-8226 leukemia
  GI50: 11.5 µM
  TGI: 52.8 µM
TK-10 renal
  GI50: 17.6 µM
  TGI: 36.1 µM
HS 578T breast
  GI50: 19.1 µM
  TGI: 52.8 µM
SNB-19 CNS
  GI50: 25.7 µM
  TGI: 52.7 µM
COLO 205 colon
  GI50: 23.6 µM
  TGI: 48 µM
ACHN renal
  GI50: 17.6 µM
  TGI: 32.6 µM
HL-60(TB) leukemia
  GI50: 34.1 µM
  TGI: 67.2 µM
HCT-116 colon
  GI50: 19.8 µM
  TGI: 38.9 µM
A549 NSCLC
  GI50: 27.7 µM
  TGI: > 100 µM
MALME-3M melanoma
  GI50: 16.9 µM
  TGI: 38.7 µM
SW-620 colon
  GI50: 20.6 µM
  TGI: 44.8 µM
UACC-62 melanoma
  GI50: 16.1 µM
  TGI: 30.9 µM
M14 melanoma
  GI50: 20.7 µM
  TGI: 42.1 µM
DU-145 prostate
  GI50: 15.2 µM
  TGI: 30.7 µM
EKVX NSCLC
  GI50: 5.68 µM
  TGI: 25.2 µM
MDA-MB-435
  GI50: 21.7 µM
  TGI: 43.3 µM
NCI-H522 lung
  GI50: 21.8 µM
  TGI: 53.7 µM
KM12 colon
  GI50: 18.5 µM
  TGI: 43.1 µM
NCI/ADR-RES ovarian
  GI50: 32.8 µM
  TGI: 90.3 µM
SF-295 CNS
  GI50: 19.5 µM
  TGI: 38.5 µM
OVCAR-5 ovarian
  GI50: 24.8 µM
  TGI: 50.3 µM
BT-549 breast
  GI50: 18.9 µM
  TGI: 41.8 µM
IGROV1 ovarian
  GI50: 37.3 µM
  TGI: > 100 µM
SF-539 CNS
  GI50: 19.9 µM
  TGI: 38.6 µM
K-562 leukemia
  GI50: 29.6 µM
  TGI: > 100 µM
HCT-15 colon
  GI50: 20.3 µM
  TGI: 43.3 µM
MOLT-4 leukemia
  GI50: 15 µM
  TGI: 36.8 µM
A498 renal
  GI50: 19.8 µM
  TGI: 39.1 µM
786-0 renal
  GI50: 14.5 µM
  TGI: 29.8 µM
T-47D breast
  GI50: 23.8 µM
  TGI: 52.3 µM
CAKI-1 renal
  GI50: 25.5 µM
  TGI: 42.5 µM
NCI-H460 lung
  GI50: 23.8 µM
  TGI: 65.7 µM

## COc1ccc(/C=C\c2cc(OC)c(OC)c(OC)c2)cc1OCC(=O)Nc1nc2ccc(C(F)(F)F)cc2s1
MCF7 breast
  GI50: 3.16 µM
  TGI: 65.1 µM
MDA-MB-231 breast
  GI50: 3.38 µM
  TGI: > 100 µM
U251 CNS
  GI50: 3.67 µM
  TGI: > 100 µM
SK-MEL-2 melanoma
  GI50: 3.98 µM
  TGI: > 100 µM
HT29 colon
  GI50: 14.9 µM
  TGI: > 100 µM
NCI-H226 lung
  GI50: 3.17 µM
  TGI: 31.3 µM
SK-MEL-5 melanoma
  GI50: 2.84 µM
  TGI: 13.9 µM
HOP-62 NSCLC
  GI50: 5.22 µM
  TGI: > 100 µM
HOP-92 NSCLC
  GI50: 2.88 µM
  TGI: 75.6 µM
OVCAR-8 ovarian
  GI50: 3.86 µM
  TGI: > 100 µM
SN12C renal
  GI50: 4.43 µM
  TGI: > 100 µM
SR leukemia
  GI50: 3.35 µM
  TGI: > 100 µM
SK-MEL-28 melanoma
  GI50: 3 µM
  TGI: > 100 µM
LOX IMVI melanoma
  GI50: 4.01 µM
  TGI: > 100 µM
OVCAR-3 ovarian
  GI50: 2.11 µM
  TGI: 4.51 µM
HCC-2998 colon
  GI50: 4.23 µM
  TGI: > 100 µM
OVCAR-4 ovarian
  GI50: 4.66 µM
  TGI: > 100 µM
NCI-H23 lung
  GI50: 3.9 µM
  TGI: > 100 µM
CCRF-CEM leukemia
  GI50: 4.27 µM
  TGI: > 100 µM
SNB-75 CNS
  GI50: 1.58 µM
  TGI: 6.47 µM
SF-268 CNS
  GI50: 3.85 µM
  TGI: 48.6 µM
UACC-257 melanoma
  GI50: 40 µM
  TGI: > 100 µM
PC-3 prostate
  GI50: 4.32 µM
  TGI: > 100 µM
UO-31 renal
  GI50: 3.59 µM
  TGI: > 100 µM
RPMI-8226 leukemia
  GI50: 5.48 µM
  TGI: > 100 µM
TK-10 renal
  GI50: 7.03 µM
  TGI: > 100 µM
HS 578T breast
  GI50: 4.18 µM
  TGI: > 100 µM
SNB-19 CNS
  GI50: 5.03 µM
  TGI: > 100 µM
COLO 205 colon
  GI50: 17.1 µM
  TGI: 68 µM
ACHN renal
  GI50: 4.83 µM
  TGI: > 100 µM
HCT-116 colon
  GI50: 3.29 µM
  TGI: > 100 µM
A549 NSCLC
  GI50: 4.46 µM
  TGI: > 100 µM
MALME-3M melanoma
  GI50: > 100 µM
  TGI: > 100 µM
SW-620 colon
  GI50: 4.65 µM
  TGI: > 100 µM
UACC-62 melanoma
  GI50: 3.9 µM
  TGI: > 100 µM
M14 melanoma
  GI50: 3.59 µM
  TGI: > 100 µM
DU-145 prostate
  GI50: 2.51 µM
  TGI: 6.56 µM
EKVX NSCLC
  GI50: 6.25 µM
  TGI: > 100 µM
SK-OV-3 ovarian
  GI50: 3.29 µM
  TGI: 17.2 µM
MDA-MB-435
  GI50: 1.84 µM
  TGI: 5.91 µM
NCI-H522 lung
  GI50: 2.89 µM
  TGI: 19.6 µM
KM12 colon
  GI50: 3.14 µM
  TGI: 11.5 µM
NCI/ADR-RES ovarian
  GI50: 2.12 µM
  TGI: 5.8 µM
SF-295 CNS
  GI50: 3.36 µM
  TGI: > 100 µM
OVCAR-5 ovarian
  GI50: 5.98 µM
  TGI: > 100 µM
BT-549 breast
  GI50: 5.23 µM
  TGI: > 100 µM
IGROV1 ovarian
  GI50: 4.48 µM
  TGI: > 100 µM
SF-539 CNS
  GI50: 2.66 µM
  TGI: 7.87 µM
K-562 leukemia
  GI50: 3.3 µM
  TGI: > 100 µM
HCT-15 colon
  GI50: 3.24 µM
  TGI: > 100 µM
MOLT-4 leukemia
  GI50: 3.75 µM
  TGI: > 100 µM
A498 renal
  GI50: 2.81 µM
  TGI: 18.6 µM
786-0 renal
  GI50: 6.69 µM
  TGI: > 100 µM
T-47D breast
  GI50: 4.79 µM
  TGI: > 100 µM
CAKI-1 renal
  GI50: 3.1 µM
  TGI: > 100 µM
NCI-H460 lung
  GI50: 3.55 µM
  TGI: > 100 µM
